Tests used:
YAP-TEAD = YAP-TEAD inhibitor activity by Nano luciferase method (8xGTiiC-nLuc reporter in 293T cells); assay type: cell-based; details: Homo sapiens, HEK-293T, 48 hours incubation, read-out: Nano-luciferase detection (IC50)
Description: EXAMPLE 2: YAP-TEAD INHIBITOR ACTIVITY WAS DETECTED BY NANO LUCIFERASE METHOD
(1) Experimental materials and equipments: 293T cells were purchased from NANJING COBIOER BIOSCIENCES CO., LTD. DMEM medium (High sugar, no phenol red, Bio-Channel), DMSO (dimethyl sulfoxide), Lipo6000™ transfection reagent (Beyotime), pGL3B-8xGTiiC-nLuc-CMV-fLuc plasmid, 0.25% EDTA-Tripsin (trypsin digest), 1×PBS (phosphate buffer, PH7.2), 96-well white cell culture plate (PerkinElmer), fetal bovine serum (FBS), 10,000 U/mL penicillin-G/streptomycin, high-speed freezing centrifuge (EPPENDORF 5810R), 37° C. CO2 incubator, Vi-cell® Cell Counter, Envision Microplate Reader (PerkinElmer).
The revived 293T cells were inoculated into a 10 cm culture dish and placed in an incubator with 5% CO2, and cultured at constant temperature of 37° C. To ensure transfection efficiency, cells at logarithmic phase (cell density of approximately 50%-70%) should be used.
On the day before transfection, cells at the logarithmic phase were digested with Trypsin-EDTA, and culture medium was added to terminate digestion. The cell suspension was prepared by blowing and mixing using a pipette.
Cell concentration was measured using Vi-cell, and the cell suspension was diluted to a suspension of 5*10^^5 cells per milliliter. After preparing the cell suspension, the suspension was gently mixed. 10 ml of liquid was added to a 10 cm culture dish. In this way, the number of cells in each 10 cm culture dish was 5*10^^6. The cells were incubated at a constant temperature of 37° C. for 1 day in an incubator with 5% CO2.
Two clean and sterile centrifuge tubes were taken and added with 750 μL opti-MEM Medium without antibiotics and serum, respectively. Then one tube was added with 15 μg Plasmid (pGL3B-8xGTiiC-nLuc-CMV-fLuc), and gently blew and mixed well using a pipette; the other tube was added with Lipo6000 transfection reagent, and gently blew and mixed using a pipette. After standing at room temperature for 5 minutes, the culture solution containing DNA was added gently to the culture solution containing Lipo6000 transfection reagent, and mixed well by gently inverting the centrifuge tube, then standing at room temperature for 5 minutes.
The above mixture was added evenly to a 10 cm culture dish and replaced with fresh complete culture medium after 6 hours of cultivation.
After transfection for 1 day, cells were digested with Trypsin EDTA, and culture medium was added to terminate the digestion. The cell suspension was prepared by blowing and mixing using a pipette.
Cell concentration was measured using Vi-cell, and the cell suspension was diluted to a suspension of 20000 cells per milliliter.
After preparing the cell suspension, the suspension was gently mixed, and added to 96-well plate with 100 μL per well. Thus, the density of the cells to be tested is 2000 cells per well.
The inoculated cell culture plate was placed in the incubator for cultivation, and after about 24 hour, compounds with concentration gradient were added.
10 mM compound stock solution was diluted with culture medium to 50 μM. Compound solution of 50 μM was added to the third column of the deep well plate, 216 μL of culture medium containing 0.5% DMSO was added to the fourth to eleventh columns, successively.
Gradient dilution: taking 100 μL of solution from the third column and adding the solution to the fourth column and mixing well; then taking 100 µL of solution from the fourth column again and adding the solution to the fifth column, repeating this operation until the eleventh column.
Taking 25 μL of compound solution from the deep well plate and adding it to a 96-well culture plate using a multi-channel pipette. Repeating four times on the 96 well plate for each compound. Finally, a concentration gradient of 1:3.16 was formed in the 96-well plate with a maximum concentration of 10,000 nM. The • (5) Addition of Nano Luciferase Detection Reagent and Read […]

[1] = tested on: human pleural mesothelioma cells NCI-H226; assay: Cell anti-proliferation experiment (CCK8), NCI-H226; assay type: cell-based
Description: TEST EXAMPLE 1 CELL ANTI-PROLIFERATION EXPERIMENT
Determination of proliferation inhibition of YAP-TEAD inhibitor compounds on human pleural mesothelioma cells NCI-H226
Experimental materials and equipments: Human pleural mesothelioma cells NCI-H226 was purchased from NANJING COBIOER BIOSCIENCES CO., LTD. RPMI-1640 medium (Bio-Channel), DMSO (dimethyl sulfoxide), CCK8 (WST-8) Cell Assay Kit (Beyotime), 0.25% EDTA-Tripsin (trypsin digest), 1×PBS (phosphate buffer, PH7.2), 96-well plate (Corning), fetal bovine serum (FBS), 10,000 U/mL penicillin-G/streptomycin, high-speed freezing centrifuge (EPPENDORF 5810R), enzyme-linked immunosorbent assay (Tecan Spark).
1. Cell plating • A) Tumor cells were cultured to 80-90% density in RPMI-1640 (containing 10% FBS and 100 U/mL penicillin-G/streptomycin) under the condition of 37° C., 5% CO2 and saturated humidity. • B) The culture medium was removed from the 10 cm culture dish. • C) Cells were washed with 10 ml 1×PBS. • D) 4 ml of 0.25% EDTA-Tripsin was added to digest pancreatin for 5 minutes in an incubator at 37° C. and 5% CO2. Then the mixture was transferred to a 15 ml centrifuge tube, and centrifuged for 5 minutes at 200 g. The supernatant was discarded to obtain cell precipitation. • E) The cell precipitation was resuspended with 4 ml of […], counted and adjusted to 10,000 cells/ml. • F) The cell suspension was added to a 96-well plate with a volume of 100 μL per well and cultured overnight in an incubator at 37° C. and 5% CO2.
• Compound dilution • A) Preparation of gradient dilution solutions of the tested compounds: the tested compounds was configured to 1 mM stock solution. Then […] of stock solution was dissolved in 1.5 ml of DMSO-free culture solution, and then 3-fold continuous gradient dilution with 0.1% DMSO culture solution was performed to get a total of 9 concentrations. The diluted concentrations of the compound were as follows: 333.33 nM, 111.11 nM, 37.03 nM, 12.35 nM, 4.15 nM, 1.37 nM, 0.46 nM, 0.15 nM • B) After full mixing, 100 μL of culture compound solution was taken to replace the culture solution in the cell culture plate, with 4 duplicated wells at each concentration; • C) The cells were transferred to the incubator to incubate for 3 days.
• A) the cell culture plate was taken out and added with 10 μl of CCK-8 (WST-8) solution per well in the biosafety cabinet; • B) The cell culture plate was put back into the incubator and continued to incubate for 3 hours; • C) 450 nm wavelength was selected to measure absorbance value on TECAN enzyme linked immunosorbent assay detector.
The following formula was used to calculate the cell viability (% Cell Viability); • Cell Viability (%)=[A(Drug-added)-A(Blank)]/[A(0 Drug-added)-A(blank)][…] • A (Drug-added): The absorbance of wells containing cells, CCK8 solution, and drug solution. • A (Blank): The absorbance of wells containing culture medium and CCK8 solution, but without cells. • A (0 Drug-added): The absorbance of wells containing cells, CCK8 solution, but without drug solution. • Cell viability: Cell proliferation viability or cytotoxicity viability was determined by the IC50 value obtained by curve fitting using GraphPad Prism 8 software.

Row | Structure (SMILES) | IC50 (YAP-TEAD) | IC50 [1]
1 | C[C@H](NC(=O)c1ccc2c(c1)c1c(cnn1CC(F)(F)F)c(=O)n2-c1ccc(C(F)(F)F)cc1)c1ccccn1 [Example T-411] | ≤ 1000 nM | 1000 to 5000 nM
2 | C[C@H](NC(=O)c1ccc2c(c1)c1csc(F)c1c(=O)n2-c1ccc(C(F)(F)F)cc1)c1ccccn1 [Example T-299] | ≤ 1000 nM | ≤ 1000 nM
3 | Cc1c(Br)c(=O)n(-c2ccc(C(F)(F)F)cc2)c2ccc(C(=O)N[C@@H](C)c3ccccn3)cc12 [Example T-278] | ≤ 1000 nM | ≤ 1000 nM
4 | CCS(=O)(=O)Nc1ccc2c(c1)c1nn(C)cc1c(=O)n2-c1ccc(C(F)(F)F)cc1 [Example T-188] | ≤ 1000 nM | ≤ 1000 nM
5 | CC1CCc2c1c1cc(C(=O)N[C@@H](C)c3ccccn3)ccc1n(-c1ccc(C(F)(F)F)cc1)c2=O (stereo partly drawn) [Example T-445] | ≤ 1000 nM | ≤ 1000 nM
6 | C[C@H](NC(=O)c1ccc2c(c1)c1ccccc1c(=O)n2-c1ccc(C(F)(F)F)cc1)c1cccc(N)n1 [Example T-399] | ≤ 1000 nM | ≤ 1000 nM
7 | C[C@H](NC(=O)c1ccc2c(c1)c1nscc1c(=O)n2-c1ccc(C(F)(F)F)cc1)c1cccc(N)n1 [Example T-435] | ≤ 1000 nM | ≤ 1000 nM
8 | COc1cccc([C@H](C)NC(=O)c2ccc3c(c2)c2nn(C)cc2c(=O)n3-c2ccc(C(F)(F)F)cc2)n1 [Example T-134] | ≤ 1000 nM | ≤ 1000 nM
9 | COC[C@H](C)NC(=O)c1ccc2c(c1)c(=O)ccn2-c1ccc(C(F)(F)F)cc1 [Example T-35] | ≤ 1000 nM | 1000 to 5000 nM
10 | Cc1ccc([C@H](C)NC(=O)c2ccc3c(c2)c2nn(C)cc2c(=O)n3-c2ccc(C(F)(F)F)cc2)nc1 [Example T-124] | 1000 to 5000 nM | 1000 to 5000 nM
11 | C[C@H](NC(=O)c1ccc2c(c1)c1nscc1c(=O)n2-c1ccc(C(F)(F)F)cc1)c1ccccn1 [Example T-329] | ≤ 1000 nM | ≤ 1000 nM
12 | C[C@H](NC(=O)c1ccc2c(c1)c1c(Cl)scc1c(=O)n2-c1ccc(C(F)(F)F)cc1)c1ccccn1 [Example T-301] | ≤ 1000 nM | ≤ 1000 nM
13 | CNC(=O)Nc1ccc2c(c1)c1nn(C)cc1c(=O)n2-c1ccc(C(F)(F)F)cc1 [Example T-181] | ≤ 1000 nM | ≤ 1000 nM
14 | Cc1cccnc1[C@H](C)NC(=O)c1ccc2c(c1)c1nn(C)cc1c(=O)n2-c1ccc(C(F)(F)F)cc1 [Example T-145] | ≤ 1000 nM | ≤ 1000 nM
15 | C[C@H](NC(=O)c1ccc2c(n1)c1cocc1c(=O)n2-c1ccc(C(F)(F)F)cc1)c1ccccn1 [Example T-389] | ≤ 1000 nM | ≤ 1000 nM
16 | CNS(=O)(=O)c1ccc2c(c1)-c1cn(C)nc1CCN2c1ccc(C(F)(F)F)cc1 [Example T-55] | ≤ 1000 nM | ≤ 1000 nM
17 | Cc1ccc2c(c1)c(=O)n(-c1ccc(C(F)(F)F)cc1)c1ccc(C(=O)N[C@@H](C)c3ccccn3)cc21 [Example T-256] | ≤ 1000 nM | ≤ 1000 nM
18 | C[C@H](NC(=O)c1ccc2c(c1)c1nn(C)cc1c(=O)n2-c1ccc(C(F)(F)F)cc1)c1cccc(N(C)C)n1 [Example T-150] | ≤ 1000 nM | ≤ 1000 nM
19 | C[C@H](NC(=O)c1ccc2c(c1)c1c(c(=O)n2-c2ccc(C(F)(F)F)cc2)CCCC1)c1cccc(N)n1 [Example T-428] | ≤ 1000 nM | ≤ 1000 nM
20 | Cc1scc2c1c(=O)n(-c1ccc(C(F)(F)F)cc1)c1ncc(C(=O)N[C@@H](C)c3ccccn3)cc21 [Example T-373] | 1000 to 5000 nM | 1000 to 5000 nM
21 | CC(C)NC(=O)c1ccc2c(c1)c(=O)ccn2-c1ccc(C(F)(F)F)cc1 [Example T-6] | ≤ 1000 nM | ≤ 1000 nM
22 | C[C@H](NC(=O)c1cnc2c(ccc(=O)n2-c2ccc(C(F)(F)F)cc2)c1)c1ccccn1 [Example T-456] | ≤ 1000 nM | ≤ 1000 nM
23 | Cc1cc2c(=O)n(-c3ccc(C(F)(F)F)cc3)c3ncc(C(=O)N[C@@H](C)c4ccccn4)cc3c2s1 [Example T-404] | ≤ 1000 nM | ≤ 1000 nM
24 | C[C@H](NC(=O)c1ccc2c(c1)c1nn(C)cc1c(=O)n2-c1ccc(C(F)(F)F)cc1)c1ccc(C(F)(F)F)cn1 [Example T-123] | 1000 to 5000 nM | 1000 to 5000 nM
25 | C[C@H](NC(=O)c1ccc2c(ccc(=O)n2-c2ccc(C(F)(F)F)cc2)c1)c1cccc(N)n1 [Example T-423] | ≤ 1000 nM | ≤ 1000 nM
26 | C[C@H](NC(=O)c1ccc2c(c1)c1nn(C)cc1c(=O)n2-c1ccc(C(F)(F)F)cc1)c1cccc(N)n1 [Example T-148] | ≤ 1000 nM | ≤ 1000 nM
27 | C[C@H](NC(=O)c1ccc2c(c1)c1nn(C)cc1c(=O)n2-c1ccc(OC(F)(F)F)cc1)c1ccccn1 [Example T-229] | ≤ 1000 nM | ≤ 1000 nM
28 | C[C@H](NC(=O)c1ccc2c(c1)c1scnc1c(=O)n2-c1ccc(C(F)(F)F)cc1)c1ccccn1 [Example T-331] | ≤ 1000 nM | ≤ 1000 nM
29 | CNS(=O)(=O)c1ccc2c(c1)c1c(cnn1C)c(=O)n2-c1ccc(C(F)(F)F)cc1 [Example T-195] | 1000 to 5000 nM | 1000 to 5000 nM
30 | C/C=C/C(=O)Nc1ccc2c(c1)c1nn(C)cc1c(=O)n2-c1ccc(C(F)(F)F)cc1 [Example T-239] | ≤ 1000 nM | ≤ 1000 nM

From patent publication US20250154105A1, “POLYCYCLIC COMPOUND AND USE THEREOF” (TYK MEDICINES, INC., priority 2021, published 2025)
